We go through one compound from PMC6154319, “Intestinal Transport Characteristics and Metabolism of C-Glucosyl Dihydrochalcone, Aspalathin” (Molecules : A Journal of Synthetic Chemistry and Natural …, 2017).

SMILES strings stand for the structures.

The subject of one series is Caco-2 monolayer. Description: in vitro. On the procedure: Validation of the Caco-2 transport experiments required consideration of three parameters, i.e., firstly, to determine the cytotoxic concentrations of synthetic aspalathin, secondly, the concentration of aspalathin required to ensure HPLC detection in the basolateral compartment, and finally, to assess whether the transport of aspalathin is concentration dependent.
Cells were cultured at 37 °C and 5% CO2 in 95% humidified air in Eagle’s Minimum Essential Medium (EMEM) containing sodium […] pyruvate, supplemented with 2 mM L-glutamine, 1% non-essential amino acids and 10% heat inactivated FBS. Cell cultures were split when 70%–80% confluent, using trypsin/ethylenediaminetetraacetic acid (EDTA). The culture medium, pre-warmed to 37 °C, was refreshed every 2–3 days. Cells were seeded at 1 × 10^4 cells/cm^2 and a sub-cultivation ratio of 1:3 was routinely used. Cells were seeded with the addition of 1% penicillin/streptomycin mixture (10,000 units/mL potassium penicillin and 10,000 µg/mL streptomycin sulphate) at 4 × 10^4 cells/cm^2 onto 0.4 µm polycarbonate 6-well inserts with an insert area of 4.52 cm^2. Cells were used for transport experiments when TEER values across wells were >300 Ω, typically 21–23 days post confluence. Only passages 50–60 were used to prevent phenotypic drift.
The cell monolayers were equilibrated briefly with transport buffer, pH 6.0 (HBSS with 2-(N-morpholino) ethanesulphonic acid (MES)) on the apical side and pH 7.4 (HBSS with HEPES) on the basolateral side, to remove traces of the culture media. Following this, transport buffers were added for 30 min prior to the addition of treatment (inhibitors were added during this step when required, as well as during the subsequent treatment incubation step). After equilibration, the plates containing transport medium were incubated for 30 min at 37 °C at 5% CO2 in 95% humidified air and the TEER value of the monolayer determined. […] For basolateral-to-apical compartment studies, 2.4 mL of treatment at the same concentrations in HBSS (pH 7.4), was added to the basolateral compartment.
To assess whether aspalathin was co-transported with glucose, its transport (100 µM) at both high (20.5 mM) and low (5.5 mM) glucose concentrations, mimicking the intestinal lumen glucose concentrations pre- and post-meals, was monitored. This was followed by experiments performed in the presence and absence of SGLT1 (100 µM phloridzin), GLUT2 (100 µM phloretin) and efflux, PgP (100 µM verapamil) inhibitors.
Samples (1.2 mL) were withdrawn from the basolateral or the apical compartment to measure the concentration of aspalathin uptake and efflux, respectively at 0, 0.5, 1, 1.5, and 2 h under sink conditions (the sample aliquot replaced with equal volume of relevant transport buffer). Sample aliquots (350 µL) were frozen in liquid nitrogen after the addition of ascorbic acid (35 µL of 10% solution) and stored at −65 °C until HPLC analysis. Results were corrected for dilution and expressed as cumulative transport (% of initial dose) as a function of time. Papp (cm/s) for bi-directional transport studies was calculated as previously described. Transport of other major flavonoids in the matrices, i.e., nothofagin, the 3-deoxy analogue of aspalathin and its flavone derivatives, orientin and isoorientin, were also determined.
Lucifer yellow (final concentration 0.1 mM) was used as a membrane integrity marker and co-incubated with the compounds and extracts.
HPLC-DAD analysis of samples from the apical and basolateral compartments was performed in duplicate on an Agilent 1200 system as previously described. Basolateral and apical samples taken after 2 h with pure aspalathin were also analysed using LC-MS (parameters described in [42]) to determine whether aspalathin metabolites were formed in the Caco-2 model.
All experiments were performed in triplicate and the data expressed as mean ± SD, unless otherwise indicated.

Series [1] can be described thus: Acute mouse study, metabolite identification in blood and urine by LC-MS/MS. The class given is in vivo. Particulars: oral 50 mg/kg. On the procedure: An acute mouse study was performed under ethical approval from the Ethics Committee for Research on Animals (ECRA) of the South African Medical Research Council (Ref:07/13). Three 8-week old male C57.BKS mice, obtained from the Primate Unit of the South African Medical Research Council (Tygerberg, South Africa), were housed individually in polycarbonate cages with wired lids and kept in a controlled environment of 23–24 °C, 50% humidity, and a 12 h light/dark cycle. Prior to the study, urine was collected from the fasting mice overnight in a metabolic cage. Baseline fasted blood was collected via tail snip into a heparin tube, snap frozen in liquid nitrogen, and stored at −80 °C. Each mouse received a single dose of synthetic aspalathin (50 mg/kg body weight) dissolved in phosphate-buffered saline (PBS) (5 mg/mL) via orogastric gavage. Blood samples were collected and handled as described for fasting at time 0 (pre-gavage), and 1, 2, 4, 6, and 8 h post-gavage. All the samples were collected into the same heparin tube and kept on ice during the experiment. Urine was collected over the 8-h post-gavage monitoring period and the samples were stored at −80 °C until analysis.
The frozen whole blood samples, as well as the samples incubated with microsomes and controls, were thawed, extracted by protein precipitation using 0.1% formic acid (FA) in acetonitrile, centrifuged and filtered through 0.22 µm polyvinylidene difluoride (PVDF) filters (Merck Millipore, Frankfurter Straße, Darmstadt, Germany). Frozen whole urine samples were thawed and diluted 5 times in 0.1% aqueous FA. Samples were analysed by LC-MS/MS on an Agilent 1200 Rapid Resolution HPLC system (600 bar, Agilent Technologies) coupled to a 4000 QTRAP® (AB Sciex, Framingham, MA, USA) equipped with a Turbo V™ […]. Filtered samples (10 μL), stored on a sample tray maintained at 8 °C, were injected on a Gemini C6-Phenyl column (150 × 2.0 mm, 3 µm particles) (Phenomenex, Santa Clara, CA, USA) at 40 °C. […]

Consider `O=C(CCc1ccc(O)c(O)c1)c1c(O)cc(O)c([C@@H]2O[C@H](CO)[C@@H](O)[C@H](O)[C@H]2O)c1O` [Aspalathin], for which, in the series with Caco-2 monolayer (Caco-2), the “Papp a-b with high glucose” value is 2.90 ± 0.75 × 10^−7 cm/s, the “Papp a-b − Inhibitor” value is 1.73 ± 0.97 ×10^−6 cm/s, the Papp b-a is recorded as 2.15 ± 0.23 × 10^—6 cm/s and the “Papp b-a − Inhibitor” value is 2.09 ± 0.23 ×10^−6 cm/s. In addition, in the series on Caco-2 monolayer (buffered solution of synthetic aspalathin, 1 µM), the “Papp (cm/s) a-b × 10^−6” value was 2.28 ± 0.09 cm/s × 10^−6. Moreover, in the series on Caco-2 monolayer (from aspalathin-enriched green rooibos extract SB1, 0.38 mg/mL (153, 11, 17, 9 µM aspalathin, nothofagin, isoorientin, orientin)), the “Papp (cm/s) a-b × 10^−6” value was 2.00 ± 1.10 cm/s × 10^−6. The “Papp (cm/s) a-b × 10^−6” value with Caco-2 monolayer (from semi-purified fraction PEF1, 0.15 mg/mL (149, 21, 12, 8 µM aspalathin, nothofagin, isoorientin, orientin)) was 2.11 ± 0.20 cm/s × 10^−6. For the same compound, the “detection of aspalathin and metabolites in blood” value in series [1] (blood 1-8 h post-gavage) is reported as “No aspalathin, nor any of its metabolites, could be detected”. Besides, the “number of aspalathin metabolites detected in the urine” value in series [1] (urine over 8 h) turned out to be 13.
